Laboratory results reported in patent US4369120A, “Refrigeration liquid with leak indicator and process of using same” (priority 1981, dated 1983).
Entries after “also recorded” stand apart in the source; their conditions may differ.

Legend:
[1] = 400° F. (204.4° C.), reported in U.S. Pat. No. 3,770,640; cited from earlier work
[2] = Solubility of dyes in refrigeration oils; conditions: for Oil Sol. In 3GS: Table I, Suniso 3GS refrigeration oil
Procedure: Manufacturers of refrigeration equipment generally demand that any refrigeration liquid satisfactorily pass such a sealed tube test before they approve the liquid for use in their equipment. In addition, the solubility of the various dyes in oil and in refrigerant were determined.
Solubility of various dyes in various refrigeration oils was carefully determined according to the following standardized procedure. An excess of the subject dye was added to a given weight (e.g., 100 g) of refrigerant oil. The mixture was stirred for one-half hour with mild heating, whereupon it was cooled to room temperature (about 21° C.) and transferred to a centrifuge tube. The mixture was centrifuged approximately 15 minutes at 1000 rpm. A sample of the supernatant liquid was decanted (1.00 g±0.01 g) and diluted to 100 ml volume with methylene chloride. Aliquot portions were taken and read against the principal absorption peaks by visible light spectroscopy. Wt/wt percentage concentrations were then calculated from proper standard curves.

[3] = Solubility of dyes in halocarbon refrigerants; format: physicochemical; conditions: for Refr. Sol. In R-12: Table I, refrigerant R-12
Procedure: Solubilities of various dyes in various halocarbon refrigerants were also determined according to the following standardized procedure. […] The R-11 was allowed to vaporize, leaving a known amount of dye in the bottom portion of the test tube. The tube was then attached to a charging apparatus containing a supply of a given halocarbon refrigerant and various amounts of the refrigerant were charged into the tube while chilling the latter by immersion in liquid nitrogen. The tube containing the dye/refrigerant mixture was sealed under vacuum, allowed to reach room temperature (about 21° C.) and rotated for several hours. Visual inspection of the tube was made at several temperatures to note the degree of dissolution. The procedure was improved over previously used methods in that an exact predetermined amount of dye and refrigerant were made to interact, requiring fewer weighings. Finally, it became possible to use the same tube to check solubility at several different temperatures.

[4] = Sealed tube test of stability of dyes in refrigerant/refrigeration oil with metal coupons; format: physicochemical; conditions: for Stability, Mean Life: Table I, sealed tube data in R-12 at 350° F.; for stability as measured by the sealed tube test: text summary of Table I, 350° F.
Procedure: By reference to Table I below it can be appreciated that such ortho substitution has a remarkably beneficial effect on the stability of the dyes in the accelerated sealed tube test used for evaluation. The first three dyes listed, embodying the principles of this invention, routinely withstand in excess of twenty days in the sealed tube test at 350° F. (176.7° C.), equivalent to many years of normal use in a refrigeration system.
The sealed tube test serves as a method of evaluating in an accelerated manner interactions of materials found in a refrigeration system.
Glass tubes and all metal test coupons are scrupulously cleaned. Test refrigerants are distilled to minimize moisture contamination. Moisture is removed from the refrigeration test oil "Suniso" 3GS by subjecting the oil to a vacuum with slight stirring and heating. Ratios of refrigerant/refrigerant oil range from 1:1 to 1:2 by weight.
Refrigerant oil and representative metal coupons of copper #10AWG wire, Swedish valve stock steel, and aluminum metal sheet are placed in a glass tube along with the subject test dye material (0.25-1.0% wt/wt) dissolved in the refrigerant oil. Like samples without the subject dye are analyzed as controls.
The tube and its contents are chilled in a liquid nitrogen bath while the refrigerant is condensed into the tube via a calibrated manometer. The tube is sealed under a vacuum of at least 0.1 torr.
Glass tubes and contents are subjected to uniform heating in a bored aluminum block placed in a temperature-programmed oven.
The oven temperatures used vary according to the test refrigerant, as indicated:
The test is run for one of the following time periods: 5, 14, 21, 30 or 60 days.
The tube contents may be evaluated by several methods:
of these methods, the visual examination is the most rapid and the only qualitative method. Any color change in the subject dye coloration is noted when compared to a control sample.
The quantitative methods involve analysis for decomposition products of chloride as hydrochloric acid or organic products by gas chromatography, infrared spectroscopy, or mass spectroscopy. However, visual inspection and gas chromatography are widely used, and they were selected as standardization procedures for evaluation of sealed tube contents.
R-12 is chemically one of the more reactive refrigerants; thus, short term tests with refrigeration liquids containing this refrigerant admixed with a mineral oil yield the most rapid results. R-22 and R-502 are also used but the decomposition products are more difficult to analyze by gas chromatography. Ultimately the test material must pass interactions involving any of these refrigerants. The visual method can be used empirically on a pass-fail basis. As verified experimentally, visual results are considered as valid as instrumental methods.

Question: Which “stability in the sealed tube test at 400° F. (in words)” value [1] does the source give for `CCc1cc(CC)c(Nc2ccc(Nc3c(CC)cc(CC)cc3CC)c3c2C(=O)c2ccccc2C3=O)c(CC)c1` [1,4-bis(2,4,6-triethylanilino)anthraquinone] here?
Answer: very unstable; also recorded: so poor as to make this dye commercially unacceptable

Question: For `Cc1cccc(C)c1Nc1ccc(Nc2c(C)cccc2C)c2c1C(=O)c1ccccc1C2=O` [Dye No. 2-31, 1,4-Bis(2,6-dimethylanilino)-anthraquinone], which “solubility in the refrigeration oil (in words)” value [2] is on record?
Answer: relatively high solubility

Question: What about the “Oil Sol. In 3GS” value [2] of the same compound?
Answer: 0.1%

Question: What about the “solubility in the halocarbon refrigerant (in words)” value [3] of the same compound?
Answer: sufficient solubility

Question: And the Solubility in refrigerant ([3]; R-12, 21° C.)?
Answer: < 0.02 %(wt/wt)

Question: What about the Solubility in refrigerant ([3]; R-22, 21° C.) of the same compound?
Answer: 0.04 %(wt/wt)

Question: And the Solubility in refrigerant ([3]; R-502, 21° C.)?
Answer: < 0.02 %(wt/wt)

Question: And the “Refr. Sol. In R-12” value [3]?
Answer: < 0.1%

Question: And the “Stability, Mean Life” value [4]?
Answer: 22.4 days

Question: And the “stability as measured by the sealed tube test” value [4]?
Answer: > 20 days

Question: With `Cc1cc(C)c(Nc2ccc(Nc3c(C)cc(C)cc3C)c3c2C(=O)c2ccccc2C3=O)c(C)c1` [Dye No. 3-25, 1,4-Bis(mesidino)anthraquinone] as the compound, how does the “solubility in the refrigeration oil (in words)” value [2] read?
Answer: relatively high solubility

Question: What about the “Oil Sol. In 3GS” value [2] of the same compound?
Answer: 0.55%

Question: What about the “solubility in the halocarbon refrigerant (in words)” value [3] of the same compound?
Answer: sufficient solubility

Question: What about the “Refr. Sol. In R-12” value [3] of the same compound?
Answer: < 0.1%

Question: What about the “Stability, Mean Life” value [4] of the same compound?
Answer: 24.3 days

Question: What about the “stability as measured by the sealed tube test” value [4] of the same compound?
Answer: > 20 days
